Experiments:
BCL-xL = BCL-xL (Homo sapiens, UniProt Q07817); assay: BCL-binding assay (AlphaLISA competition, BAD peptide); details: 6xHis BCL-xL with biotinylated BAD peptide, 24 hr incubation
Description: (§1) Compounds were prepared as 400× DMSO stock solutions in a 1:4 dilution series then diluted […] in assay buffer (25 mM HEPES pH 7.5, 100 mM NaCl, 0.1% BSA, 0.005% Tween) immediately before use. Aliquots of 400 nM 6xHis-tagged BCL-xL, BCL-2, and BCL-w were thawed on ice and diluted to 0.4 (BCL-XL) or 0.8 (BCL-W and 2) nM in assay buffer. Aliquots of biotinylated BIM and BAD peptides were diluted in assay buffer to 120 and 60 nM respectively. Ten microliters of biotinylated peptide were added to wells of a 96-well PCR plate, followed by ten microliters of inhibitor, then ten microliters of BCL protein, BCL-XL with BAD and BCL-W/2 with BIM. The plates were sealed and incubated at room temperature. After 24 hr, 0.16 μg Anti-His conjugated AlphaLISA acceptor beads were added in 5 μL assay buffer. After one hour at room temperature, 0.16 μg AlphaScreen streptavidin donor beads were added in 5 μL assay buffer and plates were incubated an additional 30 min in the dark. Two 17 μL aliquots of each reaction were plated in a Perkin Elmer 384-well proxiplate, and plates were scanned for using a Perkin Elmer Enspire plate reader. Kd values were calculated in Prism Graph Pad using a one site competitive binding model and previously determined Kd values for each protein peptide pair. […]

BCL-2 = BCL-2 (Homo sapiens, UniProt P10415); assay: BCL-binding assay (AlphaLISA competition, BIM peptide); details: 6xHis BCL-2 with biotinylated BIM peptide, 24 hr incubation
Sequence of BCL-2 (P10415 whole entry, species assumed): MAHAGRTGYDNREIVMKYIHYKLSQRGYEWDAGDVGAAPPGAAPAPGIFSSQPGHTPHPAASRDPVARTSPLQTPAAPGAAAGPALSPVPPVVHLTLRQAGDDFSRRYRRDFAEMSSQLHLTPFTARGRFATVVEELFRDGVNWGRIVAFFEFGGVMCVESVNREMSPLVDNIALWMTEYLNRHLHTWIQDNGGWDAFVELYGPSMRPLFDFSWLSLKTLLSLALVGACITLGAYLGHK
Description: as §1

BCL-w = target: T1, BCL-w (Homo sapiens, UniProt Q92843); assay: as above; details: 6xHis BCL-w with biotinylated BIM peptide, 24 hr incubation
T1 sequence (Q92843 1-193): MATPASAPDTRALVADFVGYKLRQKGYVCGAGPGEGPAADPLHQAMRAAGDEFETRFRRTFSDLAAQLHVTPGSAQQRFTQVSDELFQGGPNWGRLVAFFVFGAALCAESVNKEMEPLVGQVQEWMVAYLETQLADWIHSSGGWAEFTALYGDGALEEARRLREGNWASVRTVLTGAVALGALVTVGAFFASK
Description: as §1

[1] = tested on: IMR-90 SnC (irradiated senescent IMR90 cells); assay: Senolysis assay (CellTiter-Glo viability); assay type: cell-based, human; details: for EC50: Homo sapiens, IMR-90, light or radiation study, 72 h, X-ray irradiated senescent IMR90 cells, viability three days after compound addition; for SI (ratio of EC50 of non-senescent cells to EC50 of senescent cells): IMR90 non-senescent vs senescent cells
Description: IMR90 cells are maintained in DMEM supplemented with 10% FBS. To prepare a senescent population, cells were trypsinized, diluted to 50,000 per mL, and irradiated with 10-15 Gy of X-ray irradiation. Irradiated cells were plated at 5000 cells per well in one third of a 96-well plate and maintained for two weeks prior to the assay. Four days prior to the assay, non-senescent IMR90s were plated at 2500 per well in the second third of the plate. One day prior to the assay, 2500 non-senescent cells were plated in the final third of the plate. Compounds were prepared as a 200×DMSO dilution series then diluted to 1× in media immediately before adding to cells. Three days after compound addition, cell viability was measured using CellTiter-Glo reagent from Promega. Viability was calculated relative to a DMSO control and EC50 values are calculated in Prism GraphPad. […] The selectivity (SI) of the compounds described herein is a ratio of the EC50 of non-senescent cells to the EC50 of senescent cells. The SI of the compounds described herein is 10 or above for “A” selectivity, between 2 and 10 for “B” selectivity or 2 or less for “C” selectivity.

Sequence of BCL-xL (Q07817 whole entry, species assumed): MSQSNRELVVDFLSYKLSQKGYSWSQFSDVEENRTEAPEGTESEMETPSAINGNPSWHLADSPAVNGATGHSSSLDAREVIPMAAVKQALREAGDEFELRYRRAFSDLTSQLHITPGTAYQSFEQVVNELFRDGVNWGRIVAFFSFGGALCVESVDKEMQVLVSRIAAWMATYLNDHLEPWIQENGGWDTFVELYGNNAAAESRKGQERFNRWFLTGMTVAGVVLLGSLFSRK

SMILES | Kd (BCL-xL) [nM] | Kd (BCL-2) [nM] | Kd (BCL-w) [nM] | EC50 [1] [nM] | SI (ratio of EC50 of non-senescent cells to EC50 of senescent cells) [1]
CCOP(=O)(CN1CCN(CC[C@H](CSc2ccccc2)Nc2ccc(S(=O)(=O)NC(=O)c3ccc(N4CCN(CC5=C(c6ccc(Cl)cc6)CCC(C)(C)C5)CC4)cc3)cc2S(=O)(=O)C(F)(F)F)CC1)OCOC(=O)C(C)(C)C (stereo partly drawn) [Compound 28, (((4-((R)-3-((4-(N-(4-(4-((4′-Chloro-4,4-dimethyl-3,4,5,6-tetrahydro-[1,1′-biphenyl]-2-yl)methyl)piperazin-1-yl)benzoyl)sulfamoyl)-2-((trifluoromethyl)sulfonyl)phenyl)amino)-4-(phenylthio)butyl)piperazin-1-yl)methyl)(ethoxy)phosphoryl)oxy)methyl pivalate] | 1 to 10 | < 1 | 10 to 50 | < 1000 | B (between 2 and 10)
CN(CC[C@H](CSc1ccccc1)Nc1ccc(S(=O)(=O)NC(=O)c2ccc(N3CCN(CC4=C(c5ccc(Cl)cc5)CCC(C)(C)C4)CC3)cc2)cc1S(=O)(=O)C(F)(F)F)CCP(=O)(O)O [Compound 12] | < 1 | < 1 | 10 to 50 | > 10000 | –
CC1(C)CCC(c2ccc(Cl)cc2)=C(CN2CCN(c3ccc(C(=O)NS(=O)(=O)c4ccc(N[C@H](CCN5CCN(CP(=O)(O)O)CC5)CSc5ccccc5)c(S(=O)(=O)C(F)(F)F)c4)cc3)CC2)C1 [Compound 7] | < 1 | < 1 | 10 to 50 | > 10000 | B (between 2 and 10)
CC1(C)CCC(c2ccc(Cl)cc2)=C(CN2CCN(c3ccc(C(=O)NS(=O)(=O)c4ccc(N[C@H](CCN5CCN(CCP(=O)(OCOC(=O)C(C)(C)C)OCOC(=O)C(C)(C)C)CC5)CSc5ccccc5)c(S(=O)(=O)C(F)(F)F)c4)cc3)CC2)C1 [Compound 43, (R)-(((2-(4-(3-((4-(N-(4-(4-((4′-chloro-4,4-dimethyl-3,4,5,6-tetrahydro-[1,1′-biphenyl]-2-yl)methyl)piperazin-1-yl)benzoyl)sulfamoyl)-2-((trifluoromethyl)sulfonyl)phenyl)amino)-4-(phenylthio)butyl)piperazin-1-yl)ethyl)phosphoryl)bis(oxy))bis(methylene) bis(2,2-dimethylpropanoate)] | 1 to 10 | < 1 | 10 to 50 | > 10000 | –
CCOP(=O)(CN1CCN(CC[C@H](CSc2ccccc2)Nc2ccc(S(=O)(=O)NC(=O)c3ccc(N4CCN(CC5=C(c6ccc(Cl)cc6)CCC(C)(C)C5)CC4)cc3)cc2S(=O)(=O)C(F)(F)F)CC1)OCC [Compound 6] | < 1 | < 1 | 1 to 10 | < 1000 | A (10 or above)
CCOP(=O)(CCN1CCN(CC[C@H](CSc2ccccc2)Nc2ccc(S(=O)(=O)NC(=O)c3ccc(N4CCN(CC5=C(c6ccc(Cl)cc6)CCC(C)(C)C5)CC4)cc3)cc2S(=O)(=O)C(F)(F)F)CC1)OCC [Compound 9] | < 1 | < 1 | 1 to 10 | < 1000 | A (10 or above)
CCOP(=O)(CN1CCN(CC(CSc2ccccc2)Nc2ccc(S(=O)(=O)NC(=O)c3ccc(N4CCN(CC5=C(c6ccc(Cl)cc6)CCC(C)(C)C5)CC4)cc3)cc2S(=O)(=O)C(F)(F)F)CC1)OCC (stereo not shown) [Compound 34] | 1 to 10 | < 1 | > 50 | > 10000 | C (2 or less)
CC1(C)CCC(c2ccc(Cl)cc2)=C(CN2CCN(c3ccc(C(=O)NS(=O)(=O)c4ccc(N[C@H](CCN5CCN(CCCP(=O)(O)O)CC5)CSc5ccccc5)c(S(=O)(=O)C(F)(F)F)c4)cc3)CC2)C1 [Compound 32] | < 1 | < 1 | 10 to 50 | > 10000 | –

From patent US11111259B2, “Acylsulfonamide derivatives for treating senescence-associated diseases and disorders” (Unity Biotechnology, Inc., priority 2015, dated 2021)
